Laboratory results taken from US10793553B2, “TLR7/8 antagonists and uses thereof” (Merck Patent GmbH, priority 2017, dated 2020).

Columns and labels:
TLR7 = biological target: T1, TLR7 (Homo sapiens, UniProt Q9NYK1); experiment: HEK TLR7 Cell Assay; assay type: cell-based; conditions: TLR7/NFKb HEK cells, R848 agonist 10 uM final, Steady-Glo readout
T1 construct: expressed in transfected cells; host or cells: HEK cells carrying TLR7 and an NFkB luciferase reporter
T1 sequence (Q9NYK1 27-1049): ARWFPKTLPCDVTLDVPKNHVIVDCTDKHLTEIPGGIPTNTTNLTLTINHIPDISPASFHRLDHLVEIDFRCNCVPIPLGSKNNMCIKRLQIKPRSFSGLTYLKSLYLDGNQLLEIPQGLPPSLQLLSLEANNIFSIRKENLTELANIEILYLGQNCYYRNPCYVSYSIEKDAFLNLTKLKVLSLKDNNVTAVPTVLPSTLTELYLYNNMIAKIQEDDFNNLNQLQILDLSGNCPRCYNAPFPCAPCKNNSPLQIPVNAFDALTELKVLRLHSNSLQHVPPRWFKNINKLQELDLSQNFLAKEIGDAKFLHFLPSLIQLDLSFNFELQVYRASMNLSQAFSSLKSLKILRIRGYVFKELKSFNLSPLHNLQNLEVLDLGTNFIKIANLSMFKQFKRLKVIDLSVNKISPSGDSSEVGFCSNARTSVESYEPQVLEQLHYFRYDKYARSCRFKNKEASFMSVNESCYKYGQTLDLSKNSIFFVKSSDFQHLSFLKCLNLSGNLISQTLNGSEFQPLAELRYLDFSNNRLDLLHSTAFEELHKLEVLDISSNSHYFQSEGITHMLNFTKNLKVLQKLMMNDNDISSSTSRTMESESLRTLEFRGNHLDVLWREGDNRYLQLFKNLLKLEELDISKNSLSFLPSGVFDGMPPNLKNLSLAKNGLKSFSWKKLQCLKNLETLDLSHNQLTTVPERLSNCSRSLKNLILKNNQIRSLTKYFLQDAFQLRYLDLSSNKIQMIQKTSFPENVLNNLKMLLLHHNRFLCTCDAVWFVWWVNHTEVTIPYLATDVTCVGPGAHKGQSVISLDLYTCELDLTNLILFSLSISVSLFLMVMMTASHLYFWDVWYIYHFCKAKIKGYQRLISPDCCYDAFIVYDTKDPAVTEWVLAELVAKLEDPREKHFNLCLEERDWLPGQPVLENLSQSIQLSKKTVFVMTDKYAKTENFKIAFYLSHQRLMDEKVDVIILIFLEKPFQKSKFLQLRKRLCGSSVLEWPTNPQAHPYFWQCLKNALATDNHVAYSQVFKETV
Summary of the method: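 TLR7/NF-κB reporter HEK cells seeded 5000/well and cultured 24 h at 37 °C before compound addition. After 30 min compound pre-incubation, stimulated with R848 (10 uM final) for 5 h. Reporter activity read by Steady-Glo luminescence.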

TLR8 = biological target: T2, TLR8 (Homo sapiens, UniProt Q9NR97); experiment: HEK TLR8 Cell Assay; assay type: cell-based; conditions: TLR8/NFKb HEK cells, R848 agonist 30 uM final, Steady-Glo readout
T2 construct: expressed in transfected cells; host or cells: HEK cells carrying TLR8 and an NFkB luciferase reporter
T2 sequence (Q9NR97 27-1041): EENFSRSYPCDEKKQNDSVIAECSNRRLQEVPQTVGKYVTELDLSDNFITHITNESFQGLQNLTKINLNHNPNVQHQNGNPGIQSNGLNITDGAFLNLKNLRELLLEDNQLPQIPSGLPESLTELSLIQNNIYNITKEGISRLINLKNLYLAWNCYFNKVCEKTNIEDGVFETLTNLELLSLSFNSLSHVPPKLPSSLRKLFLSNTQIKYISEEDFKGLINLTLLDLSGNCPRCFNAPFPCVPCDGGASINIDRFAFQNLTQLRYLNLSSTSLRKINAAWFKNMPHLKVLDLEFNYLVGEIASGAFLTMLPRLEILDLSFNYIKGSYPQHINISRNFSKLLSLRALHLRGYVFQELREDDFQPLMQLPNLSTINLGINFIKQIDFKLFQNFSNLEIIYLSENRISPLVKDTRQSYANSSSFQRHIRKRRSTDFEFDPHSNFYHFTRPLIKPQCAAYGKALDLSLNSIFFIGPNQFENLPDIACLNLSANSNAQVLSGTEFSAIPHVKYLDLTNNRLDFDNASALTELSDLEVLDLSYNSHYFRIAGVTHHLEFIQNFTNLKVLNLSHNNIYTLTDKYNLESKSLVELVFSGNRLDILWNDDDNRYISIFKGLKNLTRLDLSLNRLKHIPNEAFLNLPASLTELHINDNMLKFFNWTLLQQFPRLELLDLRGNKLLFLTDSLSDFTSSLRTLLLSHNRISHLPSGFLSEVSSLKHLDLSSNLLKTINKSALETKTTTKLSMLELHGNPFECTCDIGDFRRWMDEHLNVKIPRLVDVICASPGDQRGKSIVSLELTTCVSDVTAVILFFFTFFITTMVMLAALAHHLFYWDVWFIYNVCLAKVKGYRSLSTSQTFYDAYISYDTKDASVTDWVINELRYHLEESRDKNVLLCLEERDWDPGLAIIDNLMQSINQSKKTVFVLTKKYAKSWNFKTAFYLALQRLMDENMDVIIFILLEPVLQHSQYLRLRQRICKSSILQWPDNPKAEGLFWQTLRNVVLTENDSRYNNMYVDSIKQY
Summary of the method: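 TLR8/NF-κB reporter HEK cells pre-treated with compound for 30 min, then stimulated with R848 (30 uM final) for 5 hours at 37 degrees Celsius. Reporter activity read as Steady-Glo luminescence.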

**Q.** Which IC50 (TLR7) does the source give for `C[C@@H]1CN(c2ccc(C(F)(F)F)c3ncccc23)C[C@@H]1NC(=O)CC1CCCN(C)C1` (single isomer, unassigned) [Compound 20] here?
**A.** The IC50 was under 1000 nM.

**Q.** And the IC50 (TLR8)?
**A.** The IC50 was 1000 to 10000 nM.
